According to patent US8921376B2, “Pyrrolopyridines useful as inhibitors of protein kinase” (Vertex Pharmaceuticals Incorporated, priority 2005, dated 2014):

Assays:
Format in all cases: biochemical
JAK3 = target: T1, JAK3 (Homo sapiens, UniProt P52333); experiment: JAK3 inhibition assay (33P incorporation into poly(Glu)4Tyr)
T1 sequence (P52333 1-1124): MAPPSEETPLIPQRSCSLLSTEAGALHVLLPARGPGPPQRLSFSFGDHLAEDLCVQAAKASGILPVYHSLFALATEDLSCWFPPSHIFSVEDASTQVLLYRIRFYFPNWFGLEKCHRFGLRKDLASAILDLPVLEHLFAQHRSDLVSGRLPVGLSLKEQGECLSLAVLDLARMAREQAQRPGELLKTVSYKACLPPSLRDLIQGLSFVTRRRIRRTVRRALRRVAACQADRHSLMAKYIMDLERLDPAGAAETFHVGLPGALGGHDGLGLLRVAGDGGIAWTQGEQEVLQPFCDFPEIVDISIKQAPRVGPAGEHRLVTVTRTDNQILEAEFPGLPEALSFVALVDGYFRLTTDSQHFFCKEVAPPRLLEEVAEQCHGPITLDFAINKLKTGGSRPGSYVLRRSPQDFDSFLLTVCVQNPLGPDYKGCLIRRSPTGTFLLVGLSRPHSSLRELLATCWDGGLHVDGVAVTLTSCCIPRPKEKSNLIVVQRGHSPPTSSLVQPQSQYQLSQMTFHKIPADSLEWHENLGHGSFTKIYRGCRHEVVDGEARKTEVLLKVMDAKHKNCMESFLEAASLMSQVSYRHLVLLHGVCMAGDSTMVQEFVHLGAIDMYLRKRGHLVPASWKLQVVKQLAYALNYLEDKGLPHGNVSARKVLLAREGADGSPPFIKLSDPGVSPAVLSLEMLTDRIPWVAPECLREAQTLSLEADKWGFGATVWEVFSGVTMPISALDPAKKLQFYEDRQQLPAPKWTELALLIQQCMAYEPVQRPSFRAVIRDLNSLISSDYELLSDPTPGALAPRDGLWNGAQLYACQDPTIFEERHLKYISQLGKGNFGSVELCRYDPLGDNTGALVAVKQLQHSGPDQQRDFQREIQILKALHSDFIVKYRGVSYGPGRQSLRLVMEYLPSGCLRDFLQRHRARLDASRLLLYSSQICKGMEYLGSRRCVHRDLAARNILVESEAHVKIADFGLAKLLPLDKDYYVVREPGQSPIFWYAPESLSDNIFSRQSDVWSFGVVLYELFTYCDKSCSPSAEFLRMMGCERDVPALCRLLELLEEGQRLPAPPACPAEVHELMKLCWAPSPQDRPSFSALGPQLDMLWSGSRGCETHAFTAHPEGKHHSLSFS
How it was run: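 After TCA quench and filter harvest, scintillation counting of 33P measured phosphorylation of poly(Glu)4Tyr (1 μM) by 1 nM JAK3. The 20-min, 25° C. reaction contained 5 μM ATP (200 μCi/μmole) in pH 7.4 HEPES buffer with 10 mM MgCl2.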

JAK2 = JAK2 (Homo sapiens, UniProt O60674); experiment: JAK2 inhibition assay (as Example 3 with JAK-2 enzyme)
How it was run: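 In HEPES pH 7.4 buffer with 10 mM MgCl2, 1 mM DTT, 25 mM NaCl and 0.01% BSA, JAK2 enzyme phosphorylated poly(Glu)4Tyr (final 15 μM) using 33P-ATP (final 12 μM) for 20 min at room temperature (25 °C). Reactions stopped with TCA; incorporated 33P measured by scintillation after filtration.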

ROCK I = ROCK I (Homo sapiens, UniProt Q13464); experiment: ROCK-I inhibition assay (radioactive enzyme assay, MBP substrate)
How it was run: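 Human ROCK at 5 nM phosphorylated 27 μM myelin basic protein with 13 μM [γ-33P]ATP (final) in HEPES pH 7.5, MgCl2, NaCl, DTT and 1.5% DMSO. Reactions ran 2 h at room temperature before TCA quench and filter-plate scintillation counting. After background subtraction, data were fit to give Ki(app).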

[1] = Table 6, enzyme inhibition data (Ki)
[2] = enzyme inhibition, Ki(app), Table 5

JAK2, sequence (O60674 whole entry): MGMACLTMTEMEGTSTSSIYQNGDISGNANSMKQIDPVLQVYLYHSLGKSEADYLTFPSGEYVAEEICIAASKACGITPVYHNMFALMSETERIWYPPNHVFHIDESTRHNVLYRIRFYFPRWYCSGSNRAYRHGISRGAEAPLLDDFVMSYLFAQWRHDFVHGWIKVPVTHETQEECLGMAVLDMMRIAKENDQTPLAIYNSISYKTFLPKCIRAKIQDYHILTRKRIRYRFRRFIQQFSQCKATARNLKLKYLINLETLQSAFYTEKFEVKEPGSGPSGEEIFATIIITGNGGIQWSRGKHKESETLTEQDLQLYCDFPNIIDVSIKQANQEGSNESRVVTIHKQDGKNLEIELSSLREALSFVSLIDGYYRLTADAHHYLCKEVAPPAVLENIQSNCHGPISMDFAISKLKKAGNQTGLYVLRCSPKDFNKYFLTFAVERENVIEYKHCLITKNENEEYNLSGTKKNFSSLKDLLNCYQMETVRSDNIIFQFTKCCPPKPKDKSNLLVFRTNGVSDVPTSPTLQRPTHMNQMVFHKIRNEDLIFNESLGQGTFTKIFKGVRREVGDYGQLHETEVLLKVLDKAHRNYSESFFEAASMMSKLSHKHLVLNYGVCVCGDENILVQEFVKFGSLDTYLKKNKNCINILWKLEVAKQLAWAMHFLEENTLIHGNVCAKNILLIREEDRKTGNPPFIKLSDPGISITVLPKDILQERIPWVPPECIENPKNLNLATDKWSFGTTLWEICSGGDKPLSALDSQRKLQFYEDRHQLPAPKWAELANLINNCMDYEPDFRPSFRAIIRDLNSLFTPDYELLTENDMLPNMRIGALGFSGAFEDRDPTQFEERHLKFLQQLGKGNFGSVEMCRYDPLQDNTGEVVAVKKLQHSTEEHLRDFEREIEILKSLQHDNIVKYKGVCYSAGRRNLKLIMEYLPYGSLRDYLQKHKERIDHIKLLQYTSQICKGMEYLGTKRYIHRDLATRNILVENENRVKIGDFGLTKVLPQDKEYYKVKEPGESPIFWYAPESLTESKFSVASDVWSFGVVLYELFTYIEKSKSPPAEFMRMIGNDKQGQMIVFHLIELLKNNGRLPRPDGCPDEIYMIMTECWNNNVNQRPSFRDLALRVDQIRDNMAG
ROCK I, sequence (Q13464 whole entry): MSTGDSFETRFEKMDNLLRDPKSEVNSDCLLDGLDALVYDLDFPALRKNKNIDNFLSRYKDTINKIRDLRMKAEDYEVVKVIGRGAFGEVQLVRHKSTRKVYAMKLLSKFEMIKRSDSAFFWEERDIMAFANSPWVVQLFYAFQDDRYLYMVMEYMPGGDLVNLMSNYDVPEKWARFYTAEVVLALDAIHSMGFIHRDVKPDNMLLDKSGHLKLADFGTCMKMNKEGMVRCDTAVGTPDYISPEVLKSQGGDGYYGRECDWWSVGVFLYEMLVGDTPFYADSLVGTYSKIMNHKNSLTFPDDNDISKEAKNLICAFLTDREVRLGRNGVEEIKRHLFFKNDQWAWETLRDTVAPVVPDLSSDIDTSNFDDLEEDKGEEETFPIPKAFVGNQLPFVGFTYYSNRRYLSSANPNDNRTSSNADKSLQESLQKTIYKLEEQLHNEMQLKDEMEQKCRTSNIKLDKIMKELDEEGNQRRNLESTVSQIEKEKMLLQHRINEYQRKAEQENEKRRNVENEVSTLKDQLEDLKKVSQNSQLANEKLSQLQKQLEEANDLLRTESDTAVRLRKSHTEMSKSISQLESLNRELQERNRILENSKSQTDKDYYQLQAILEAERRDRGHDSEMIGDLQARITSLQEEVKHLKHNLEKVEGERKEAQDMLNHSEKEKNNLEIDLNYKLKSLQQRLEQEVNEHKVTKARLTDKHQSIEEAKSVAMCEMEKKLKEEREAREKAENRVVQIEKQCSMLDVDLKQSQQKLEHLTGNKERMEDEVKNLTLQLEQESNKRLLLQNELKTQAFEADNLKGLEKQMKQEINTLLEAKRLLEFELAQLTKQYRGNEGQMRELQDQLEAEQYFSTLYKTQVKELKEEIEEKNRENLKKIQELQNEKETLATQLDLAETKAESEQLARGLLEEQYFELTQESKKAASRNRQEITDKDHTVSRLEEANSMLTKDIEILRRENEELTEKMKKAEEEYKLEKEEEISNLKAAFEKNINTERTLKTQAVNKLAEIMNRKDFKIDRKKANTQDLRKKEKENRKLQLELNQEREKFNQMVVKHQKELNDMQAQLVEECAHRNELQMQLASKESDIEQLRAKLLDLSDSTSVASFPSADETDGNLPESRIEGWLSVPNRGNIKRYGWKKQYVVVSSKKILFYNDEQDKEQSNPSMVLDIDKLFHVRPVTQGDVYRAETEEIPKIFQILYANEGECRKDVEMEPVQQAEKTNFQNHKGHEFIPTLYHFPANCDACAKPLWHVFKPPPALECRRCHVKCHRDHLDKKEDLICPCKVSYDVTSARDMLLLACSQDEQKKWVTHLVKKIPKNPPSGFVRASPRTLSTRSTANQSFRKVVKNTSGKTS

| Structure (SMILES) | Ki (JAK3; [1]) [nM] | Ki (JAK2; [1]) [nM] | Ki (ROCK I; [1]) [nM] | Ki (JAK3; enzyme inhibition, Table 5) [nM] | Ki (JAK2; enzyme inhibition, Table 5) [nM] | Ki (ROCK I; [2]) [nM] |
| --- | --- | --- | --- | --- | --- | --- |
| CC(C)CN(C)C(=O)c1cc(-c2ccnc3[nH]ccc23)c[nH]1 [compound 310] | < 500 | < 500 | 500 to 5000 |  |  |  |
| CC(C)(Nc1nc(-c2ccnc3[nH]ccc23)ncc1F)C(=O)NCC(F)(F)F [compound 131] |  |  |  | < 500 | 500 to 5000 | 500 to 5000 |
| CCNC(=O)c1cc(-c2c(Cl)cnc3[nH]ccc23)c[nH]1 [compound 278] | < 500 | < 500 | > 4000 |  |  |  |
| CC(=O)Nc1cccc(-c2ccnc3[nH]ccc23)n1 [compound 98, N-(6-(1H-pyrrolo[2,3-b]pyridine-4-yl)pyridin-2-yl)acetamine] |  |  |  | 500 to 5000 | < 500 | 500 to 5000 |
| O=C(NCC(F)(F)F)c1cc(-c2c(Cl)cnc3[nH]ccc23)c[nH]1 [compound 276] | < 500 | < 500 | 500 to 5000 |  |  |  |
| N#CCCN(CCC(F)(F)F)C(=O)c1csc(-c2ccnc3[nH]ccc23)n1 [compound 405, 2-(1H-Pyrrolo[2,3-b]pyridin-4-yl)-thiazole-4-carboxylic acid (2-cyano-ethyl)-(3,3,3-trifluoro-propyl)-amide] | < 500 | < 500 | < 500 |  |  |  |
| CCCCOc1ccccc1-c1ccnc2[nH]ccc12 [compound 241] | > 5000 | > 5000 | > 4000 |  |  |  |
| CCCN(CC1CC1)C(=O)c1ccc(-c2ccnc3[nH]ccc23)s1 [compound 319] | < 500 | < 500 | < 500 |  |  |  |
| N#CCN(Cc1ccccc1)C(=O)c1cc(-c2c(F)cnc3[nH]ccc23)c[nH]1 [compound 391] | < 500 | < 500 | < 500 |  |  |  |
| O=C(c1cc(-c2c(Cl)cnc3[nH]ccc23)c[nH]1)N1CCC(CO)CC1 [compound 347] | < 500 | < 500 | 500 to 5000 |  |  |  |
| CC(C)[C@H](C(=O)NCC(F)(F)F)n1ccc2cnc(-c3ccnc4[nH]ccc34)nc21 [compound 425] | < 500 | < 500 | > 4000 |  |  |  |
| c1cc(-c2ccoc2)c2cc[nH]c2n1 [compound 133, 4-Furan-3-yl-1H-pyrrolo[2,3-b]pyridine] |  |  |  | 500 to 5000 | < 500 | < 500 |
| Clc1ccc(-c2ccnc3[nH]ccc23)cc1Cl [compound 41, 4-(3,4-Dichloro-phenyl)-1H-pyrrolo[2,3-b]pyridine] |  |  |  | 500 to 5000 | < 500 | < 500 |
| Clc1cnc2[nH]ccc2c1NC1CCCCCC1 [compound 149] | < 500 | < 500 | < 500 |  |  |  |
| O=C(O)c1ccccc1-c1ccnc2[nH]ccc12 [compound 238] | > 5000 | > 5000 | > 4000 |  |  |  |
| Clc1cnc2[nH]ccc2c1N[C@@H]1CCC[C@H]1OCc1ccccc1 [compound 152] | < 500 | < 500 | < 500 |  |  |  |
| COC(=O)N1CC[C@@H](Nc2c(Cl)cnc3[nH]ccc23)C1 [compound 170] | < 500 | < 500 | 500 to 5000 |  |  |  |
| CCN(Cc1ccncc1)C(=O)c1cc(-c2ccnc3[nH]ccc23)c[nH]1 [compound 369] | < 500 | < 500 | < 500 |  |  |  |
| Fc1cnc2[nH]ccc2c1-c1ccc(CN(CCC(F)(F)F)CC2CC2)o1 [compound 382] | < 500 | < 500 | 500 to 5000 |  |  |  |
| N#CCCN(Cc1ccccc1)C(=O)c1ccc(-c2ccnc3[nH]ccc23)s1 [compound 328] | < 500 | < 500 | < 500 |  |  |  |
| CCOc1ccc(Cl)cc1-c1ccnc2[nH]ccc12 [compound 237] | > 5000 | 500 to 5000 | 500 to 5000 |  |  |  |
| CC(C)Oc1ccc(-c2ccnc3[nH]ccc23)cc1 [compound 116, 4-(4-Isopropoxy-phenyl)-1H-pyrrolo[2,3-b]pyridine] |  |  |  | < 500 | < 500 | < 500 |
| O=C(Nc1ccccc1)c1ccc(-c2ccnc3[nH]ccc23)cc1 [compound 271] | < 500 | < 500 | < 500 |  |  |  |
| O=S(=O)(C1CC1)N1CCCC(Nc2c(Cl)cnc3[nH]ccc23)C1 (stereo not drawn) [compound 181] | < 500 | < 500 | 500 to 5000 |  |  |  |

The remaining lines, values ahead:

| Ki (JAK3; [1]) [nM] | Ki (JAK2; [1]) [nM] | Ki (ROCK I; [1]) [nM] | Ki (JAK3; enzyme inhibition, Table 5) [nM] | Ki (JAK2; enzyme inhibition, Table 5) [nM] | Ki (ROCK I; [2]) [nM] | Structure (SMILES) |
| --- | --- | --- | --- | --- | --- | --- |
| > 5000 | > 5000 | > 4000 |  |  |  | O=C(NCC(F)(F)F)c1ccccc1-c1ccnc2[nH]ccc12 [compound 253] |
| < 500 | < 500 | > 4000 |  |  |  | C#CCOC(=O)N1CC[C@H](Nc2c(Cl)cnc3[nH]ccc23)C1 [compound 165] |
| 500 to 5000 | 500 to 5000 | 500 to 5000 |  |  |  | Cc1cccc(-c2ccnc3[nH]ccc23)c1C [compound 212] |
| < 500 | < 500 | < 500 |  |  |  | CCCCN(CCC#N)C(=O)c1ccc(-c2ccnc3[nH]ccc23)s1 [compound 321] |
|  |  |  | 500 to 5000 | 500 to 5000 | < 500 | CN(CCC(O)c1ccccc1)c1cccc(-c2ccnc3[nH]ccc23)n1 (stereo not drawn) [compound 53] |
| < 500 | < 500 | < 500 |  |  |  | N#CC1CCCN1C(=O)c1cc(-c2ccnc3[nH]ccc23)c[nH]1 (stereo not drawn) [compound 373] |
| < 500 | < 500 | < 500 |  |  |  | CCCNC(=O)c1cc(-c2ccnc3[nH]ccc23)c[nH]1 [compound 283] |
|  |  |  | < 500 | < 500 | < 500 | COCc1cccc(-c2ccnc3[nH]ccc23)c1 [compound 62, 4-(3-Methoxymethyl-phenyl)-1H-pyrrolo[2,3-b]pyridine] |
| < 500 | < 500 | < 500 |  |  |  | N#CCCN(CC(F)(F)F)C(=O)c1csc(-c2ccnc3[nH]ccc23)n1 [compound 403] |
| 500 to 5000 | 500 to 5000 | > 4000 |  |  |  | O=S(=O)(c1ccccc1)n1cc(-c2c(Cl)cnc3[nH]ccc23)c2ccccc21 [compound 148] |
| < 500 | < 500 | 500 to 5000 |  |  |  | CC1CCC(Nc2c(Cl)cnc3[nH]ccc23)CC1 (stereo not drawn) [compound 229] |
| < 500 | < 500 | < 500 |  |  |  | C[C@@H]1CCC[C@H](C)N1C(=O)c1csc(-c2ccnc3[nH]ccc23)n1 [compound 421] |
| 500 to 5000 | 500 to 5000 | < 500 |  |  |  | Clc1ccc(Cl)c(-c2ccnc3[nH]ccc23)c1 [compound 211] |
|  |  |  | 500 to 5000 | 500 to 5000 | < 500 | CN(CCO)c1cccc(-c2ccnc3[nH]ccc23)n1 [compound 35, 2-(N-(6-(1H-Pyrrolo[2,3-b]pyridin-4-yl)pyridin-2-yl)-N-methylamino)ethanol] |
|  |  |  | > 5000 | > 5000 | 500 to 5000 | CN1CCN(C(=O)c2cccc(-c3ccnc4[nH]ccc34)c2)CC1 [compound 95, (4-Methyl-piperazin-1-yl)-[3-(1H-pyrrolo[2,3-b]pyridin-4-yl)-phenyl]-methanone] |
| < 500 | < 500 | < 500 |  |  |  | CCC1CCCCN1C(=O)c1csc(-c2ccnc3[nH]ccc23)n1 (stereo not drawn) [compound 423] |
| < 500 | < 500 | 500 to 5000 |  |  |  | CC1CCCCC1Nc1c(Cl)cnc2[nH]ccc12 (stereo not drawn) [compound 153] |
| 500 to 5000 | 500 to 5000 | > 4000 |  |  |  | O=C(CCNc1nc(-c2ccnc3[nH]ccc23)nc2ccccc12)NCC(F)(F)F [compound 197] |
| < 500 | < 500 | < 500 |  |  |  | O=C(c1csc(-c2ccnc3[nH]ccc23)n1)N(CC1CC1)CC(F)(F)F [compound 406] |
| 500 to 5000 | 500 to 5000 | < 500 |  |  |  | Clc1cccc(-c2ccnc3[nH]ccc23)c1Cl [compound 224] |
